Results from ChEMBL document CHEMBL1156860, “Synthesis and biological activities of novel indole derivatives as potent and selective PPARgamma modulators” (Bioorg Med Chem Lett, 2010).

Key:
[1] = biological target: T1, Peroxisome proliferator-activated receptor delta (Mus musculus, UniProt P35396); test: Agonist activity at mouse PPARdelta expressed in african green monkey CV1 cells by Gal4 transactivation assay; type: functional, cell-based, CV-1
T1 sequence (P35396 whole entry): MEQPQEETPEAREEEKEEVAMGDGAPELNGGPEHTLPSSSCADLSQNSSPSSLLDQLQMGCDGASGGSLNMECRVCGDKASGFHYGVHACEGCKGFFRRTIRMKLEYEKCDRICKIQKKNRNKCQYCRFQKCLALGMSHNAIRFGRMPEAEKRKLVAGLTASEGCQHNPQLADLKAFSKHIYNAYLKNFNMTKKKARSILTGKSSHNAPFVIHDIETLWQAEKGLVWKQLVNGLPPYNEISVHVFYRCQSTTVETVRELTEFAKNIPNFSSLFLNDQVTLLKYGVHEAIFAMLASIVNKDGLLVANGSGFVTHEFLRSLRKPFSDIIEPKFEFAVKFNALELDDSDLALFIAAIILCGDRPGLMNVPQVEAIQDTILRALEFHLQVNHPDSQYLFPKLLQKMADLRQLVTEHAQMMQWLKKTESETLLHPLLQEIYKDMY

[2] = biological target: T2, Peroxisome proliferator-activated receptor gamma (Homo sapiens, UniProt P37231)
T2 sequence (P37231 whole entry): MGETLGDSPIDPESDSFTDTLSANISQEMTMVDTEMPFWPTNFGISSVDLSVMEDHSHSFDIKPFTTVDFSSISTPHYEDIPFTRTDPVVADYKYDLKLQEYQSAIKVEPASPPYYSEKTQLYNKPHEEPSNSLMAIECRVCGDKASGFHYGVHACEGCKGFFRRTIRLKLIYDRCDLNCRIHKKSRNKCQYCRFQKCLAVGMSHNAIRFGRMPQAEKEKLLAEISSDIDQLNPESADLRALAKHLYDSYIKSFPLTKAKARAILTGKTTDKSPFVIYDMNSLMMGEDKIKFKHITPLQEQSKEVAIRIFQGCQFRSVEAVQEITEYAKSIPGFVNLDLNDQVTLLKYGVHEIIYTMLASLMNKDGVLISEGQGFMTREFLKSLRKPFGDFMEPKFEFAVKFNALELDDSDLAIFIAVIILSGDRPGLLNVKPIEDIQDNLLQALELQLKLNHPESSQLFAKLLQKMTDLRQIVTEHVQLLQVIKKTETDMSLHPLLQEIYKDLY
Description: Agonist activity at human PPARgamma expressed in african green monkey CV1 cells by Gal4 transactivation assay

[3] = biological target: T2, Peroxisome proliferator-activated receptor gamma; remark: listed apart in the source
Description: Displacement of radiolabeled ((5-{4-[Methyl-pyridin-2yl-amino)-ethoxy]-benzyl}-thiazolidine-2,4-dione) from human PPARgamma ligand binding domain expressed in Escherichia coli

[4] = biological target: T3, Peroxisome proliferator-activated receptor alpha (Homo sapiens, UniProt Q07869); test: Agonist activity at human PPARalpha expressed in african green monkey CV1 cells by Gal4 transactivation assay; type: functional, cell-based, CV-1
T3 sequence (Q07869 whole entry): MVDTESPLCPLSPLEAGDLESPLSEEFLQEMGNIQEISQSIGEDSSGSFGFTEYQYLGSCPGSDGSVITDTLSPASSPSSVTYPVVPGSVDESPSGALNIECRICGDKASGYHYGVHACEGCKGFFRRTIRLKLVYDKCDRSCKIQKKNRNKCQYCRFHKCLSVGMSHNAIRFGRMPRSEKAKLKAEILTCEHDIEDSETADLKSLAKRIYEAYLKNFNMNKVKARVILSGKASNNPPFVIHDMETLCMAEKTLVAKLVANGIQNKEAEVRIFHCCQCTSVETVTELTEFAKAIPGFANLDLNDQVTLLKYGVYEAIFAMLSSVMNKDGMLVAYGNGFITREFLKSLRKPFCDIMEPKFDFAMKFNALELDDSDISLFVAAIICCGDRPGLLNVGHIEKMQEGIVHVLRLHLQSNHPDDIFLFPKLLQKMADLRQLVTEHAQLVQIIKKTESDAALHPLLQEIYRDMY

[5] = biological target: T3, Peroxisome proliferator-activated receptor alpha; test: Displacement of radiolabeled GW-2433 from human PPARalpha ligand binding domain expressed in Escherichia coli
[6] = biological target: T4, Peroxisome proliferator-activated receptor alpha (Mus musculus, UniProt P23204); test: Agonist activity at mouse PPARalpha expressed in african green monkey CV1 cells by Gal4 transactivation assay; type: functional, cell-based, CV-1
T4 sequence (P23204 whole entry): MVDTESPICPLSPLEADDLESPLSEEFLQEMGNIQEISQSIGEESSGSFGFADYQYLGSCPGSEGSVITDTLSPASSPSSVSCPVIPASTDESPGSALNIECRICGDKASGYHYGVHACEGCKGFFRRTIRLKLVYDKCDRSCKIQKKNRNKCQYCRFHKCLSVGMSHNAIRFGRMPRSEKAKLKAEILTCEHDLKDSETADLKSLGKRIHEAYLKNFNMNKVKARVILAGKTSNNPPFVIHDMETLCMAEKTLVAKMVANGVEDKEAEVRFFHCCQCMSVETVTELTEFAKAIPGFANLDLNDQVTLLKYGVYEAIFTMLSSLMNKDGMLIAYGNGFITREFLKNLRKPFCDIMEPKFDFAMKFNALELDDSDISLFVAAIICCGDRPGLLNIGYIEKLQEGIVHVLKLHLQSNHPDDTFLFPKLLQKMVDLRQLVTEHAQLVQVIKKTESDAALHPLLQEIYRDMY

[7] = biological target: T5, Peroxisome proliferator-activated receptor delta (Homo sapiens, UniProt Q03181); test: Agonist activity at human PPARdelta expressed in african green monkey CV1 cells by Gal4 transactivation assay; type: functional, cell-based, CV-1
T5 sequence (Q03181 whole entry): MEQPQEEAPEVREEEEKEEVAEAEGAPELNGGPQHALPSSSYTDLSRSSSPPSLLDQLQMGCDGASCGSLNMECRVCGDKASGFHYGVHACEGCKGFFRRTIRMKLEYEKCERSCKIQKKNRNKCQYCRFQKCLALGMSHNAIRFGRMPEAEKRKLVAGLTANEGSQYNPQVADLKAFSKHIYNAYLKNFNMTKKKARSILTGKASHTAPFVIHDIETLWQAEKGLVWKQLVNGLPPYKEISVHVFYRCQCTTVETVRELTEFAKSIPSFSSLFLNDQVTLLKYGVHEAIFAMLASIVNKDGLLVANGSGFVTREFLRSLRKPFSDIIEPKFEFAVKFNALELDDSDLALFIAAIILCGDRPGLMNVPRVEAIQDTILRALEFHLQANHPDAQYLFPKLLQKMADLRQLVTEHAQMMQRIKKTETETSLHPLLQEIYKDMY

[8] = biological target: T5, Peroxisome proliferator-activated receptor delta; test: Displacement of radiolabeled GW-2433 from human PPARdelta ligand binding domain expressed in Escherichia coli
[9] = biological target: T6, Peroxisome proliferator-activated receptor gamma (Mus musculus, UniProt P37238); test: Agonist activity at mouse PPARgamma expressed in african green monkey CV1 cells by Gal4 transactivation assay; type: functional, cell-based, CV-1
T6 sequence (P37238 whole entry): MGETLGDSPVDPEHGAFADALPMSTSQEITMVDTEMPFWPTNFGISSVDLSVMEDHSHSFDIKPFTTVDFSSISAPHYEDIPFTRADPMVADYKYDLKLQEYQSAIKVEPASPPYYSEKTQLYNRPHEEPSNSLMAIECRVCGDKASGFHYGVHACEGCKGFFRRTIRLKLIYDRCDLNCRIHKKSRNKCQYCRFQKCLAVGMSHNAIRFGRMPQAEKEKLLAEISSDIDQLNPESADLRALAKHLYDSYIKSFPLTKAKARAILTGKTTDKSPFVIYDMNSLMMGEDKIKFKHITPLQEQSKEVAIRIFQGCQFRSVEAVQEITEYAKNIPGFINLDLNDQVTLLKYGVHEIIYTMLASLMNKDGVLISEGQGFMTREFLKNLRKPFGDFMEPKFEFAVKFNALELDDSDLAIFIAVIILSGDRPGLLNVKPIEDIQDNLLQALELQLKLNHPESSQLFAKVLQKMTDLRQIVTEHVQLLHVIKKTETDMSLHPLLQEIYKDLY

[10] = Clearance in CD rat at 1 mg/kg, iv and 5 mg/kg, po; type: ADME, organism-based; conditions: in vivo
[11] = Half life in CD rat at 1 mg/kg, iv and 5 mg/kg, po; type: ADME, organism-based; conditions: in vivo
[12] = Oral bioavailability in CD rat at 1 mg/kg, iv; type: ADME, organism-based; conditions: in vivo
[13] = Volume of distribution at steady state in CD rat at 1 mg/kg, iv and 5 mg/kg, po; type: ADME, organism-based; conditions: in vivo, read-out: Vdss
[14] = AUC in CD rat at 5 mg/kg, po; type: ADME, organism-based; design: dose 5 mg/kg, route oral; conditions: plasma
[15] = Cmax in CD rat at 1 mg/kg, iv and 5 mg/kg, po; type: ADME, organism-based; conditions: in vivo
[16] = biological target: T7, Peroxisome proliferator-activated receptor alpha (Mus musculus) (UniProt P23204); test: Agonist activity at mouse PPARalpha expressed in african green monkey CV1 cells by Gal4 transactivation assay relative to SW516; type: functional, cell-based; conditions: CV-1
T7 sequence (whole entry): T4 sequence (P23204 whole entry)

[17] = test system: Rattus norvegicus; test: Antidiabetic activity in Zucker fa/fa rat assessed as reduction in plasma glucose level in at 40 mg/kg, po twice a day for 5 days; type: functional; design: scale not given: the % may be the effect or the level left
[18] = test system: Rattus norvegicus; test: Antidiabetic activity in Zucker fa/fa rat assessed as reduction in triglyceride level in at 40 mg/kg, po twice a day for 5 days; type: functional; design: scale not given: the % may be the effect or the level left
[19] = test system: Rattus norvegicus; test: Antidiabetic activity in Zucker fa/fa rat assessed as reduction in hematocrit level in at 40 mg/kg, po twice a day for 5 days; type: functional; design: scale not given: the % may be the effect or the level left
[20] = AUC in Zucker fa/fa rat at 5 mg/kg, po; type: ADME, organism-based; design: dose 5 mg/kg, route oral; conditions: plasma
[21] = biological target: T8, Peroxisome proliferator-activated receptor alpha (Homo sapiens) (UniProt Q07869); test: Agonist activity at human PPARalpha expressed in african green monkey CV1 cells by Gal4 transactivation assay relative to SW516; type: functional, cell-based; conditions: CV-1
T8 sequence (whole entry): T3 sequence (Q07869 whole entry)

## CCCc1nc2c(C)cc(-c3nc4ccccc4n3C)cc2n1Cc1ccc(-c2ccccc2C(=O)O)cc1
[1]
  EC50: > 10 µM
[2]
  EC50: 2.02 µM
[3]
  IC50: 12.2 µM
[4]
  EC50: > 10 µM
[5]
  IC50: > 10 µM
[6]
  EC50: > 10 µM
[7]
  EC50: > 10 µM
[8]
  IC50: > 10 µM
[9]
  EC50: 4.06 µM

## CCC(NC(=O)c1ccc2c(c1)c(C)c(C)n2Cc1ccc(-c2ccccc2C(=O)O)cc1)c1ccccc1 (stereo not given)
[1]
  EC50: > 10 µM
[10]
  clearance: 40 mL/min/kg
[11]
  half-life: 4.58 h
[12]
  bioavailability: 52%
[4]
  EC50: > 10 µM
[13]
  Vd: 17 L/kg
[14]
  AUC: 1150 ng·h/mL
[5]
  IC50: > 10 µM
[15]
  Cmax: 319 ng/mL
[16]
  Activity: 79%
[6]
  EC50: 5.51 µM
[17]
  Activity: 25%
[18]
  Activity: 49%
[19]
  Activity: >10%
[7]
  EC50: > 10 µM
[20]
  AUC: 1330 ng·h/mL
[8]
  IC50: > 10 µM
[9]
  EC50: 0.002 µM

## CCCc1c(SC)c2ccc(NC(=O)C(CC)c3ccccc3)cc2n1Cc1ccc(-c2ccccc2C(=O)O)cc1 (stereo not given)
[2]
  EC50: 0.201 µM
[3]
  IC50: 0.49 µM
[4]
  EC50: > 10 µM
[5]
  IC50: > 10 µM
[8]
  IC50: 6.95 µM

## CCC(NC(=O)c1ccc2c(c1)c(SC)c(C)n2Cc1ccc(-c2ccccc2C(=O)O)cc1)c1ccccc1 (stereo not given)
[2]
  EC50: 0.001 µM
[3]
  IC50: 0.012 µM
[4]
  EC50: > 10 µM
[5]
  IC50: > 10 µM
[7]
  EC50: > 10 µM
[8]
  IC50: > 10 µM

## CCC(NC(=O)c1ccc2c(c1)cc(C)n2Cc1ccc(-c2ccccc2C(=O)O)cc1)c1ccccc1 (stereo not given)
[2]
  EC50: 0.017 µM
[3]
  IC50: 0.018 µM
[4]
  EC50: 4.96 µM
[21]
  Activity: 114%
[5]
  IC50: 7.04 µM
[7]
  EC50: > 10 µM
[8]
  IC50: > 10 µM

## Cc1c(C)n(Cc2ccc(-c3ccccc3C(=O)O)cc2)c2ccc(C(=O)NCc3ccccc3)cc12
[4]
  EC50: > 10 µM
[5]
  IC50: > 10 µM
[7]
  EC50: > 10 µM
[8]
  IC50: > 10 µM

## Cc1c(C)n(Cc2ccc(-c3ccccc3C(=O)O)cc2)c2ccc(C(=O)NCCCc3ccccc3)cc12
[2]
  EC50: 0.022 µM
[3]
  IC50: 0.018 µM
[4]
  EC50: > 10 µM
[5]
  IC50: > 10 µM
[7]
  EC50: > 10 µM
[8]
  IC50: > 10 µM
